row,Structure (SMILES),logP
1,CC(C)OC(=O)c1ccccc1,3.09
2,CCCCC/C=C\C/C=C\C/C=C\C/C=C\CCCC(=O)O,6.98
3,CCCCCC(=O)O,1.87
4,CCCCCCCCCCCCCCCCCC(=O)O,8.23
5,CC/C=C\C/C=C\C/C=C\CCCCCCCC(=O)O,6.46
6,CCCCCCCCCCCCCCCC(=O)O,7.17
7,CCCCCCCCCCCCCCCCCCCC(=O)O,9.29

# More lines, now with the values ahead:
row,logP,Structure (SMILES)
1,7.05,CCCCC/C=C\C/C=C\CCCCCCCC(=O)O
2,6.58,CCCCCCC/C=C\CCCCCCC(=O)O
3,7.64,CCCCCCCC/C=C\CCCCCCCC(=O)O
4,6.11,CCCCCCCCCCCCCC(=O)O
